What is called EC50 is the concentration needed to bring the measured effect to its halfway point.

Structures are written as SMILES. Read-outs that look alike come from different tables or passages of the source. A value given as a limit tells only on which side of the number the result lay.

For test [1] the following is noted: diabetic animal model; cited from earlier work.
In another test the target is T1, human PPARdelta (Homo sapiens, UniProt Q03181).
T1 construct: amino acids S139-Y441; expressed in transfected cells; host or cells: HEK cells, stably transfected (pcDNA3, CMV promoter)
T1 sequence (Q03181 139-441): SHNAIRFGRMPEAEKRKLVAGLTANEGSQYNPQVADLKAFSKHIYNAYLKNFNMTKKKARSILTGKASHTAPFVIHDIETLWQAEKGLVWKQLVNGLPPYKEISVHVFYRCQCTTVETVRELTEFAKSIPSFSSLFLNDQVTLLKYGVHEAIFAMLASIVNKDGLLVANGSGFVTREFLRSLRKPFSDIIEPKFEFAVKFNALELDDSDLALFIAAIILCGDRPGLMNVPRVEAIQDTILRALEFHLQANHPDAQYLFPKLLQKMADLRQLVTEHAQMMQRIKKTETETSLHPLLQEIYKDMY
The experiment in a line: Cellular PPARdelta assay (stably transfected HEK luciferase reporter cell line). In kind it is cell-based. The conditions noted are these: GR-GAL4-humanPPARdelta-LBD. On the procedure:
The PPARalphareporter cell line is cultivated to 80% confluence in DMEM (#41965-039, Invitrogen) which is mixed with the following additions: 10% cs-FCS (fetal calf serum; #SH-30068.03, Hyclone), 0.5 mg/ml zeocin (#R250-01, Invitrogen), 0.5 mg/ml G418 (#10131-027, Invitrogen), 1% penicillin-streptomycin solution (#15140-122, Invitrogen) and 2 mM L-glutamine (#25030-024, Invitrogen). The cultivation takes place in standard cell culture bottles (# 353112, Becton Dickinson) in a cell culture incubator at 37° C. in the presence of 5% CO2. The 80%-confluent cells are washed once with 15 ml of PBS (#14190-094, Invitrogen), treated with 3 ml of trypsin solution (#25300-054, Invitrogen) at 37° C. for 2 min, taken up in 5 ml of the DMEM described and counted in a cell counter. After dilution to 500.000 cells/ml, 35,000 cells are seeded in each well of a 96 well microtiter plate with a clear plastic base (#3610, Corning Costar). The plates are incubated in the cell culture incubator at 37° C. and 5% CO2 for 24 h.
PPARalpha agonists to be tested are dissolved in DMSO in a concentration of 10 mM. This stock solution is diluted in DMEM (#41965-039, Invitrogen) which is mixed with 5% cs-FCS (#SH-30068.03, Hyclone), 2 mM L-glutamine (#25030-024, Invitrogen) and the previously described antibiotics (zeocin, G418, penicillin and streptomycin). Test substances are tested in 11 different concentrations in the range from 10 μM to 100 pM.
The medium of the PPARalpha reporter cell line seeded on day 1 is completely removed by aspiration, and the test substances diluted in medium are immediately added to the cells. The dilution and addition of the substances is carried out by a robot (Beckman FX). The final volume of the test substances diluted in medium is 100 μl per well of a 96 well microtiter plate. The DMSO concentration in the assay is less than 0.1% v/v in order to avoid cytotoxic effects of the solvent.
The assay plates are incubated in an incubator at 37° C. and 5% CO2 for 24 h.
The PPARalpha reporter cells treated with the test substances are removed from the incubator, and the medium is aspirated off. The cells are lyzed by pipetting 50 μl of Bright Glo reagent (from Promega) into each well of a 96 well microtiter plate. After incubation at room temperature in the dark for 10 minutes, the microtiter plates are measured in the luminometer (Trilux from Wallac). The measuring time for each well of a microtiter plate is 1 sec.
The raw data from the luminometer are transferred into a Microsoft Excel file. Dose-effect plots and EC50 values of PPAR agonists are calculated using the XL.Fit program as specified by the manufacturer (IDBS).
The potency of substances which bind to human PPARdelta and activate it in an agonistic manner is analyzed using a stably transfected HEK cell line (HEK=human embryo kidney) which is referred to here as PPARdelta reporter cell line. In analogy to the assay described for PPARalpha, the PPARdelta reporter cell line also contains two genetic elements, a luciferase reporter element (pdeltaM-GAL4-Luc-Zeo) and a PPARdelta fusion protein (GR-GAL4-humanPPARdelta-LBD) which mediates expression of the luciferase reporter element depending on a PPARdelta ligand. […] The luciferase which is formed can be detected by means of chemiluminescence via an appropriate substrate. […]
In general terms: A reporter such as luciferase makes a cellular process visible.

The target in a further test is T2, human PPARgamma (Homo sapiens, UniProt P37231).
T2 construct: amino acids I152-Y475; expressed in transfected cells; host or cells: HEK cells, transiently transfected with pcDNA3-GAL4-humanPPARgammaLBD
T2 sequence (P37231 182-477 isoform P37231-2 limits assumed): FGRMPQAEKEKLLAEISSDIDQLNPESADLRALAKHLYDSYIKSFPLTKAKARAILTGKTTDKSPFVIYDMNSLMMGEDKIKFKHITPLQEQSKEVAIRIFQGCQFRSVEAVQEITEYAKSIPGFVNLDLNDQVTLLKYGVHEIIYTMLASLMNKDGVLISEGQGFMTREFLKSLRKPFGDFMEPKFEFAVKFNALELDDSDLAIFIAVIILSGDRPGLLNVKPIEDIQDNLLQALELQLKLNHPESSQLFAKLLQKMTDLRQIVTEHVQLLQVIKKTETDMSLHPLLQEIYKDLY
The experiment in a line: Cellular PPARgamma assay (transiently transfected HEK cells, luciferase reporter). Type of test: cell-based. The conditions noted are these: GAL4-humanPPARgammaLBD. From the text: A transient transfection system is employed to determine the cellular PPARgamma activity of PPAR agonists. It is based on the use of a luciferase reporter plasmid (pGL3basic-5×GAL4-TK) and of a PPARgamma expression plasmid (pcDNA3-GAL4-humanPPARgammaLBD). Both plasmids are transiently transfected into human embryonic kidney cells (HEK cells). There is then expression in these cells of the fusion protein GAL4-humanPPARgammaLBD which binds to the GAL4 binding sites of the reporter plasmid. In the presence of a PPARgamma-active ligand, the activated fusion protein GAL4-humanPPARgammaLBD induces expression of the luciferase reporter gene, which can be detected in the form of a chemiluminescence signal after addition of a luciferase substrate. As a difference from the stably transfected PPARalpha reporter cell line, in the cellular PPARgamma assay the two components (luciferase reporter plasmid and PPARgamma expression plasmid) are transiently transfected into HEK cells because stable and permanent expression of the PPARgamma fusion protein is cytotoxic.
The luciferase reporter plasmid pGL3basic-5×GAL4-TK is based on the vector pGL3basic from Promega. The reporter plasmid is prepared by cloning five binding sites of the yeast transcription factor GAL4 (each binding site with the sequence 5′-CTCGGAGGACAGTACTCCG-3′), together with a 160 bp-long thymidine kinase promoter section (Genbank Accession # AF027128) 5′-upstream into pGL3basic. 3′-downstream of the thymidine kinase promoter is the complete luciferase gene from Photinus pyralis (Genbank Accession # M15077) which is already a constituent of the plasmid pGL3basic used. The cloning and sequencing of the reporter plasmid pGL3basic-5×GAL4-TK took place in analogy to the description in Sambrook J. et. al. (Molecular cloning, Cold Spring Harbor Laboratory Press, 1989).
The PPARgamma expression plasmid pcDNA3-GAL4-humanPPARgammaLBD was prepared by first cloning the cDNA coding for amino acids 1-147 of the yeast transcription factor GAL4 (Genbank Accession # P04386) into the plasmid pcDNA3 (from Invitrogen) 3′-downstream of the cytomegalovirus promoter. Subsequently, the cDNA of the ligand-binding domain (LBD) of the human PPARgamma receptor (amino acids I152-Y475; Accession # g1480099) 3′-downstream of the GAL4 DNA binding domain. Cloning and sequencing of the PPARgamma expression plasmid pcDNA3-GAL4-humanPPARgammaLBD again took place in analogy to the description in Sambrook J. et. al. (Molecular cloning, Cold Spring Harbor Laboratory Press, 1989). Besides the luciferase reporter plasmid pGL3basic-5×GAL4-TK and the PPARgamma expression plasmid pcDNA3-GAL4-humanPPARgammaLBD, also used for the cellular PPARgamma assay are the reference plasmid pRL-CMV (from Promega) and the plasmid pBluescript SK(+) from Stratagene. All four plasmids were prepared using a plasmid preparation kit from Qiagen, which ensured a plasmid quality with a minimal endotoxin content, before transfection into HEK cells.
The activity of PPARgamma agonists is determined in a 4-day assay which is described below. Before the transfection, HEK cells are cultivated in DMEM (#41965-039, Invitrogen) which is mixed with the following additions: 10% FCS (#16000-044, Invitrogen), 1% penicillin-streptomycin solution (#15140-122, Invitrogen) and 2 mM L-glutamine (#25030-024, Invitrogen).
Firstly, solution A, a transfection mixture which contains all four plasmids previously described in addition to DMEM, is prepared. […]

For test [2] the following is noted: obese, insulin resistant rhesus monkeys; cited from earlier work.
For test [3] the following is noted: rhesus and cynomolgus monkeys; cited from earlier work.
For test [4] the following is noted: two weeks clinical trials in healthy volunteers; cited from earlier work.

On to `CCCc1c(OCCCOc2ccc(OCC(=O)O)cc2)ccc(C(C)=O)c1O` [Example L-165041], for which, in test [1], the plasma cholesterol entry is listed as “raises plasma cholesterol”.

Consider `CC(C)c1nnc(NS(=O)(=O)c2ccc(C3(CNc4ncc(C(F)(F)F)cc4Cl)CCCCC3)cc2)s1` [Example 1, 4-{1-[(3-Chloro-5-trifluoromethyl-pyridin-2-ylamino)-methyl]-cyclohexyl}-N-(5-isopropyl-[1,3,4]thiadiazol-2-yl)-benzenesulfonamide], for which the values for the EC50 on human PPARdelta and at human PPARgamma were 60 nM and 26 nM, respectively.

Consider `CC(C)c1nnc(NS(=O)(=O)c2ccc([C@@H]3CCC[C@@H]3Nc3ncc(C(F)(F)F)cc3Cl)cc2)s1` [Example 3, Cis-4-[(1S,2R)-2-(3-chloro-5-trifluoromethyl-pyridin-2-ylamino)-cyclopentyl]-N-(5-isopropyl-[1,3,4]thiadiazol-2-yl)-benzene-sulfonamide], for which the EC50 was 1 nM at human PPARdelta and 1800 nM on human PPARgamma.

With `Cc1cc(SCc2sc(-c3ccc(C(F)(F)F)cc3)nc2C)ccc1OCC(=O)O` [GW501516], in test [2], the HDL-cholesterol result is “raises”, the insulin levels result is listed as “decreases”, the “plasma LDL-cholesterol” value is on record as “decreases” and the triglycerides result was “decreases”.

Regarding `CC(C)c1nnc(NS(=O)(=O)c2cc3c(cc2Cl)CC(Nc2ncc(C(F)(F)F)cc2Cl)C3)s1` (centres unmarked) [Example 8, 6-Chloro-2-(3-chloro-5-trifluoromethyl-pyridin-2-ylamino)-indan-5-sulfonic acid (5-isopropyl-[1,3,4]thiadiazol-2-yl)amide], the EC50 at human PPARdelta is 779 nM; on human PPARgamma it was greater than 10000 nM.

Consider `CC(C)c1nnc(NS(=O)(=O)c2ccc([C@@H]3CCC[C@H]3Nc3ncc(C(F)(F)F)cc3Cl)cc2)s1` [Example 2, Trans-4-[(1S,2R)-2-(3-chloro-5-trifluoromethyl-pyridin-2-ylamino)-cyclopentyl]-N-(5-isopropyl-[1,3,4]thiadiazol-2-yl)-benzene-sulfonamide], for which the EC50 is 67 nM on human PPARdelta and 647 nM at human PPARgamma.

For `CCCc1c(OCCCSc2nnc(SCC(=O)O)s2)ccc(C(C)=O)c1O` [YM-16638], the plasma lipids result in test [3] is on record as “significantly lowers”; in test [4], “acts in a similar manner”.

On to `CC(C)c1nnc(NS(=O)(=O)c2ccc(C3(CNc4ncc(C(F)(F)F)cc4Cl)CCCC3)cc2)s1` [Example 4, 4-{1-[(3-Chloro-5-trifluoromethyl-pyridin-2-ylamino)-methyl]-cyclopentyl}-N-(5-isopropyl-[1,3,4]thiadiazol-2-yl)-benzene-sulfonamide], for which the EC50 at human PPARdelta was 220 nM; on human PPARgamma, 990 nM.

Source of the values: US8344004B2, “Cyclic pyridyl-N-[1,3,4]-thiadiazol-2-yl-benzene sulfonamides, processes for their preparation and their use as pharmaceuticals” (Sanofi, priority 2007, dated 2013).
